# Target: T1, Human CARM1 (PRMT4) (Homo sapiens, UniProt Q86X55)
# T1 construct: Flag-CARM1-His; made in house; host or cells: HEK 293F cells (BacMam baculovirus)
# T1 sequence (Q86X55 1-585 isoform Q86X55-1): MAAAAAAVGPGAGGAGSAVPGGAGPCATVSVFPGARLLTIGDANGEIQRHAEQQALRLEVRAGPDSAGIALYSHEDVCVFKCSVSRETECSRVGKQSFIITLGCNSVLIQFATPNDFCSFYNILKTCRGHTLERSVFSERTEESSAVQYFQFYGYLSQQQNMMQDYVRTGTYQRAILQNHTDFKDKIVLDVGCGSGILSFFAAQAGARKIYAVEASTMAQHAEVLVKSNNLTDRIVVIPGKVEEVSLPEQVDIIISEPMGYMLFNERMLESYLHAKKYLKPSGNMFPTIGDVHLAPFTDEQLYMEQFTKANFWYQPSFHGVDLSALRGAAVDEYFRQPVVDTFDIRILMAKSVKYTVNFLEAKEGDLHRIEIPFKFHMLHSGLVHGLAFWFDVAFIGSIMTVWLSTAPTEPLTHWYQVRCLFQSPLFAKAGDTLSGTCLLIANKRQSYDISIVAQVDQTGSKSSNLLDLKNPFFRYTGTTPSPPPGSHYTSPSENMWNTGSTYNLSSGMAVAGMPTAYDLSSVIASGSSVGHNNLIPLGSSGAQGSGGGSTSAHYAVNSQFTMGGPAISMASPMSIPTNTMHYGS
# Assay: CARM1 Biochemical Assay
# From the text: General Materials. S-adenosylmethionine (SAM), S-adenosylhomocysteine (SAH), bicine, Tween20, dimethylsulfoxide (DMSO), bovine skin gelatin (BSG), sodium butyrate and Tris(2-carboxyethyl)phosphine hydrochloride solution (TCEP) were purchased from Sigma-Aldrich at the highest level of purity possible. ^3H-SAM was purchase from American Radiolabeled Chemicals with a specific activity of 80 Ci/mmol. 384-well streptavidin Flashplates were purchased from PerkinElmer.
# Substrates. Peptide representative of human histone H3 residues 16-30 was synthesized with an N-terminal linker-affinity tag motif and a C-terminal amide cap by 21st Century Biochemicals. The peptide was purified by high-performance liquid chromatography (HPLC) to greater than 95% purity and confirmed by liquid chromatography mass spectrometry (LC-MS). The sequence was Biot-Ahx-[…]-amide and contained a monomethylated arginine at position 26 (SEQ ID NO.: 14).
# Molecular Biology: Human CARM1 (PRMT4) (NM_199141.1) transcript clone was amplified from an HEK 293 cDNA library, incorporating a flanking 5′ sequence encoding a FLAG tag ([…]) (SEQ ID NO.:6) fused directly to Ala 2 of CARM1 and 3′ sequence encoding a hexa His sequence ([…]) (SEQ ID NO.: 15) fused directly to Ser 608. The gene sequence encoding isoform1 containing a deletion of amino acids 539-561 was amplified subsequently and subcloned into pFastBacMam (Viva Biotech).
# Protein Expression. Recombinant baculovirus were generated according to Bac-to-Bac kit instructions (Life Technologies). […] Infections were carried out at 37° C. for 48 hours, harvested by centrifugation, and stored at −80° C. for purification.
# Protein Purification. […] Column was washed with 500 mM NaCl in buffer A and Flag-CARM1-His was eluted with 200 ug/ml FLAG peptide in buffer A. Pooled fractions were dialyzed in 20 mM Tris, 150 mM NaCl, 5% glycerol and 1 mM DTT, pH 7.8. The purity of recovered protein was 94.
# General Procedure for CARM1 Enzyme Assays on Peptide Substrates. The assays were all performed in a buffer consisting of 20 mM Bicine (pH=7.6), 1 mM TCEP, 0.005% BSG, and 0.002% Tween 20, prepared on the day of use. Compounds in 100% DMSO (1 ul) were spotted into a polypropylene 384-well V-bottom plates (Greiner) using a Platemate Plus outfitted with a 384-channel head (Thermo Scientific). DMSO (1 ul) was added to Columns 11, 12, 23, 24, rows A-H for the maximum signal control and 1 ul of SAH, a known product and inhibitor of CARM1, was added to columns 11, 12, 23, 24, rows I-P for the minimum signal control. A cocktail (40 ul) containing the CARM1 enzyme was added by Multidrop Combi (Thermo-Fisher). The compounds were allowed to incubate with CARM1 for 30 min at room temperature, then a cocktail (10 ul) containing ^3H-SAM and peptide was added to initiate the reaction (final volume=51 ul). The final concentrations of the components were as follows: CARM1 was 0.25 nM, ^3H-SAM was 30 nM, peptide was 250 nM, SAH in the minimum signal control wells was 1 mM, and the DMSO concentration was 2%. The assays were stopped by the addition of non-radiolabeled SAM (10 ul) to a final concentration of 300 uM, which dilutes the ^3H-SAM to a level where its incorporation into the peptide substrate is no longer detectable. 50 ul of the reaction in the 384-well polypropylene plate was then transferred to a 384-well Flashplate and the biotinylated peptides were allowed to bind to the streptavidin surface for at least 1 hour before being washed once with 0.1% Tween20 in a Biotek EL×405 plate washer. The plates were then read in a PerkinElmer TopCount plate reader to measure the quantity of ^3H-labeled peptide bound to the Flashplate surface, measured as disintegrations per minute (dpm) or alternatively, referred to as counts per minute (cpm).
# Where dpm=disintegrations per minute, cmpd=signal in assay well, and min and max are the respective minimum and maximum signal controls. […]
# [1] = PRMT4 IC50, biochemical evaluation, CARM1 (PRMT4), peptide substrate
# [2] = PRMT4 biochemical evaluation (numerical), single experiment or average of multiple experiments
structure (smiles),measurement,setting,value
CNCCN(C)Cc1n[nH]c2ccc(Oc3ccc(OC(C)C)cc3)cc12 [Compound 61],IC50,[1],3010 to 10000 nM
same,IC50,[2],87.3 nM
CNCCN(C)Cc1nn(C(C)C)c2ccc(OCc3ccc(C#N)cc3)cc12 [Compound 62],IC50,[1],1010 to 3000 nM
same,IC50,[2],364 nM
CCOc1ccc2[nH]nc(CN(C)CCNC)c2c1 [Compound 63],IC50,[1],3010 to 10000 nM
same,IC50,[2],4160 nM
CNCCN(C)Cc1n[nH]c2ccc(OC(C)C)cc12 [Compound 64],IC50,[1],1010 to 3000 nM
same,IC50,[2],1960 nM
CCCOc1ccc2[nH]nc(CN(C)CCNC)c2c1 [Compound 65],IC50,[1],101 to 1000 nM
same,IC50,[2],4940 nM
CNCCN(C)Cc1n[nH]c2ccc(OCc3cccc(C(N)=O)c3)cc12 [Compound 66],IC50,[1],1010 to 3000 nM
same,IC50,[2],1910 nM
CNCCN(C)Cc1n[nH]c2ccc(Oc3cccc(OC(C)C)c3)cc12 [Compound 67],IC50,[1],3010 to 10000 nM
same,IC50,[2],683 nM
CNCCN(C)Cc1n[nH]c2ccc(OCc3ccc(C(F)(F)F)cc3)cc12 [Compound 68],IC50,[1],3010 to 10000 nM
same,IC50,[2],1700 nM
CNCCN(C)Cc1n[nH]c2ccc(OCc3ccc(C(N)=O)cc3)cc12 [Compound 69],IC50,[1],3010 to 10000 nM
same,IC50,[2],4160 nM
CNCCN(C)Cc1n[nH]c2ccc(OCc3cccc(NC(C)=O)c3)cc12 [Compound 70],IC50,[1],101 to 1000 nM
same,IC50,[2],3700 nM
CNCCN(C)Cc1n[nH]c2ccc(OCc3ccc(C(C)(C)C)cc3)cc12 [Compound 71],IC50,[1],3010 to 10000 nM
same,IC50,[2],3790 nM
CNCCN(C)Cc1n[nH]c2ccc(OCc3cccc(C(F)(F)F)c3)cc12 [Compound 72],IC50,[1],101 to 1000 nM
same,IC50,[2],892 nM
CNCCN(C)Cc1n[nH]c2ccc(OCc3cccc(C(C)=O)c3)cc12 [Compound 73],IC50,[1],101 to 1000 nM
same,IC50,[2],4590 nM
CNCCN(C)Cc1n[nH]c2ccc(OCc3cccc(C(C)(C)C)c3)cc12 [Compound 74],IC50,[1],101 to 1000 nM
same,IC50,[2],305 nM
